The record followed here is patent publication US9139529B2, “Substituted quinoxalines as sodium channel modulators” (VERTEX PHARMACEUTICALS INCORPORATED, priority 2013, dated 2015).

The target in this test is human Nav1.8 (Homo sapiens (Human), UniProt Q9Y5Y9). Briefly: E-VIPR optical membrane potential assay with electrical stimulation. It counts as cell-based. Particulars: HEK cells expressing human Nav1.8. The text has this:
Assays for Detecting and Measuring NaV Inhibition Properties of Compounds E-VIPR Optical Membrane Potential Assay Method with Electrical Stimulation
Sodium channels are voltage-dependent proteins that can be activated by inducing membrane voltage changes by applying electric fields. The electrical stimulation instrument and methods of use are described in Ion Channel Assay Methods PCT/US01/21652, herein incorporated by reference and are referred to as E-VIPR. The instrument comprises a microtiter plate handler, an optical system for exciting the coumarin dye while simultaneously recording the coumarin and oxonol emissions, a waveform generator, a current- or voltage-controlled amplifier, and a device for inserting electrodes in well. Under integrated computer control, this instrument passes user-programmed electrical stimulus protocols to cells within the wells of the microtiter plate.
24 hours before the assay on E-VIPR, HEK cells expressing human Nav1.8 were seeded in 384-well poly-lysine coated plates at 15,000-20,000 cells per well. HEK cells were grown in media (exact composition is specific to each cell type and NaV subtype) supplemented with 10% FBS (Fetal Bovine Serum, qualified; GibcoBRL #16140-071) and 1% Pen-Strep (Penicillin-Streptomycin; GibcoBRL #15140-122). Cells were grown in vented cap flasks, in 90% humidity and 5% CO2.
1) Pre-spotted compounds (in neat DMSO) into compound plates. Vehicle control (neat DMSO), the positive control (20 mM DMSO stock tetracaine, 125 μM final in assay) and test compounds were added to each well at 160× desired final concentration in neat DMSO. Final compound plate volume was 80 μL (80-fold intermediate dilution from 1 μL DMSO spot; 160-fold final dilution after transfer to cell plate). Final DMSO concentration for all wells in assay was 0.625%.
2) Prepared Hexyl Dye Solution.
3) Prepared cell plates. On the day of the assay, medium was aspirated and cells were washed three times with 100 μL of Bath1 Solution, maintaining 25 μL residual volume in each well.
4) Dispensed 25 μL per well of Hexyl Dye Solution into cell plates. Incubated for 20-35 minutes at room temp or ambient conditions.
5) Dispensed 80 μL per well of Bath1 into compound plates. Acid Yellow-17 (1 mM) was added and Potassium Chloride was altered from 4.5 to 20 mM depending on the NaV subtype and assay sensitivity.
6) Washed cell plates three times with 100 μL per well of Bath1, leaving 25 μL of residual volume. Then transferred 25 uL per well from Compound Plates to Cell Plates. Incubated for 20-35 minutes at room temp/ambient condition.
7) Read Plate on E-VIPR. Used the current-controlled amplifier to deliver stimulation wave pulses for 10 seconds and a scan rate of 200 Hz. A pre-stimulus recording was performed for 0.5 seconds to obtain the un-stimulated intensities baseline. The stimulatory waveform was followed by 0.5 seconds of post-stimulation recording to examine the relaxation to the resting state.
Data was analyzed and reported as normalized ratios of emission intensities measured in the 460 nm and 580 nm channels. The response as a function of time was reported as the ratios obtained using the following formula: […]
The data was further reduced by calculating the initial (Ri) and final (Rf) ratios. These were the average ratio values during part or all of the pre-stimulation period, and during sample points during the stimulation period. The response to the stimulus R=Rf/Ri was then calculated and reported as a function of time.
Control responses were obtained by performing assays in the presence of a compound with the desired properties (positive control), such as tetracaine, and in the absence of pharmacological agents (negative control). Responses to the negative (N) and positive (P) controls were calculated as above. The compound antagonist activity A is defined as:
[formula] where R is the ratio response of the test compound

human Nav1.8, sequence (Q9Y5Y9 whole entry): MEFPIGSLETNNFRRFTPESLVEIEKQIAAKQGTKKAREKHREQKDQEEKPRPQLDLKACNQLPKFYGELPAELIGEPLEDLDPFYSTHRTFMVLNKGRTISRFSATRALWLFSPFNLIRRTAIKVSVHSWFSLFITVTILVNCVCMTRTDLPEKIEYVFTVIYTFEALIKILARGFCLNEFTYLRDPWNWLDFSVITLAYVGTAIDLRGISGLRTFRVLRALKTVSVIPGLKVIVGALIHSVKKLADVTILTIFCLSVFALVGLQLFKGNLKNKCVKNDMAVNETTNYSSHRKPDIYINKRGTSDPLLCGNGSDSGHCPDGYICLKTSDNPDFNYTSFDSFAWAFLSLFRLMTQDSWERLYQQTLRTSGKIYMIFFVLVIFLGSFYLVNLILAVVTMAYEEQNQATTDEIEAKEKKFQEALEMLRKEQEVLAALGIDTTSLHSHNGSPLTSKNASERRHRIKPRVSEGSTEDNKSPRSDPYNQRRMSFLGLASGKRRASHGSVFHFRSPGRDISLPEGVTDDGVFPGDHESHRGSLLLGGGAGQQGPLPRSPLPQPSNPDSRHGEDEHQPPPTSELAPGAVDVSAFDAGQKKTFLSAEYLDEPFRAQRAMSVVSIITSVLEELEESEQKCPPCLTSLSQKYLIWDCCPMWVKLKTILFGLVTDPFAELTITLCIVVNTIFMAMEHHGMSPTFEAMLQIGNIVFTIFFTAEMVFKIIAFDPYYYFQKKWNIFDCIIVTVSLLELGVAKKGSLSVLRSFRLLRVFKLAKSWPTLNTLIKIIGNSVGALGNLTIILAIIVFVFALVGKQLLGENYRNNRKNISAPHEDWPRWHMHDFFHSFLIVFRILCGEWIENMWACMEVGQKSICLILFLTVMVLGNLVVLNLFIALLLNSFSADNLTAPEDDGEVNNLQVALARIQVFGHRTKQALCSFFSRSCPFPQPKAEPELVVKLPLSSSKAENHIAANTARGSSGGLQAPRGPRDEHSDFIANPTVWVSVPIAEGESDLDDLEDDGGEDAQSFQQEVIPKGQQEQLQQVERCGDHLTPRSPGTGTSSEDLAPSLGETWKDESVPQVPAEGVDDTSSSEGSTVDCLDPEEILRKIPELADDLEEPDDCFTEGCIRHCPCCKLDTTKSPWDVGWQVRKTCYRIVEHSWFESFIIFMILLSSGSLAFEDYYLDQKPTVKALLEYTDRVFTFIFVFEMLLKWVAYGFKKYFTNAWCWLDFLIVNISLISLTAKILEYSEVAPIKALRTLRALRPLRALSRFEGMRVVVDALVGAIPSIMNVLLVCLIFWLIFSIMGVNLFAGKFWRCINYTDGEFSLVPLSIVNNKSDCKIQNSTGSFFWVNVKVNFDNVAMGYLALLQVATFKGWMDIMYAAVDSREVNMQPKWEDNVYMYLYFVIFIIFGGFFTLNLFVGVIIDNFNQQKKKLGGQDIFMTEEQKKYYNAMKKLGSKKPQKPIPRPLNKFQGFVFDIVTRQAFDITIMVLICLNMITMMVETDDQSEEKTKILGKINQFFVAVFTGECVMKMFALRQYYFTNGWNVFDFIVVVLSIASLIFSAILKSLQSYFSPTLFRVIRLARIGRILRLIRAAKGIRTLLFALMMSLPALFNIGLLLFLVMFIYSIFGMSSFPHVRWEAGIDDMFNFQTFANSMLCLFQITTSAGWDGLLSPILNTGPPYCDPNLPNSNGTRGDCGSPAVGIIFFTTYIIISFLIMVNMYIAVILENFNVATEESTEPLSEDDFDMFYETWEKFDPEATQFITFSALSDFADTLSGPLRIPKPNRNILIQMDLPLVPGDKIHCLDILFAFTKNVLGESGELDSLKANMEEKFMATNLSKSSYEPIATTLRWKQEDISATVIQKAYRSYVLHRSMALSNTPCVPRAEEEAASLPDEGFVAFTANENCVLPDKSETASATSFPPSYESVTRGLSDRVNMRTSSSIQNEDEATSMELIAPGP

As for `COc1ccc(Oc2nc3ccccc3nc2C(=O)Nc2ccc(C(=O)O)nc2)c(Cl)c1` [Compound 30, 5-(3-(2-chloro-4-methoxyphenoxy)quinoxaline-2-carboxamido)picolinic acid], the IC50 was determined as 69 nM. The result for `O=C(O)c1ccc(NC(=O)c2nc3ccccc3nc2Oc2ccc(OC(F)(F)F)cc2)cn1` [Compound 31, 5-(3-(4-(trifluoromethoxy)phenoxy)quinoxaline-2-carboxamido)picolinic acid] reads 15 nM; that for `COc1cc(F)ccc1Oc1nc2ccccc2nc1C(=O)Nc1ccc(C(=O)O)nc1` [Compound 32, 5-(3-(4-fluoro-2-methoxyphenoxy)quinoxaline-2-carboxamido)picolinic acid], 83 nM; that for `O=C(O)c1cc(NC(=O)c2nc3ccccc3nc2Oc2ccc(OC(F)(F)F)cc2)ccn1` [Compound 33, 4-(3-(4-(trifluoromethoxy)phenoxy)quinoxaline-2-carboxamido)picolinic acid], 7 nM.

`COc1cc(F)ccc1Oc1nc2ccccc2nc1C(=O)Nc1ccnc(C(=O)O)c1` [Compound 34, 4-(3-(4-fluoro-2-methoxyphenoxy)quinoxaline-2-carboxamido)picolinic acid] gave an IC50 of 16 nM. This IC50 is about 2.3-fold higher than that of the compound before. Next, `O=C(Nc1cc[nH]c(=O)c1)c1nc2ccccc2nc1Oc1ccc(F)cc1` [Compound 35, 3-(4-fluorophenoxy)-N-(2-oxo-1,2-dihydropyridin-4-yl)quinoxaline-2-carboxamide]: 74 nM; `COc1cc(F)ccc1Oc1nc2ccccc2nc1C(=O)Nc1cccc(C(=O)O)c1` [Compound 36, 3-(3-(4-fluoro-2-methoxyphenoxy)quinoxaline-2-carboxamido)benzoic acid]: 460 nM; `COc1cc(F)ccc1Oc1nc2ccccc2nc1C(=O)Nc1nc(C(=O)O)cs1` [Compound 37, 2-(3-(4-Fluoro-2-methoxyphenoxy)quinoxaline-2-carboxamido)thiazole-4-carboxylic acid]: 450 nM. The result for `COc1cc(F)ccc1Oc1nc2ccccc2nc1C(=O)Nc1nc[nH]n1` [Compound 38, 3-(4-fluoro-2-methoxyphenoxy)-N-(1H-1,2,4-triazol-3-yl)quinoxaline-2-carboxamide] reads 1220 nM; that for `COc1cc(F)ccc1Oc1nc2ccccc2nc1C(=O)Nc1nc(C(=O)O)co1` [Compound 39, 2-(3-(4-fluoro-2-methoxyphenoxy)quinoxaline-2-carboxamido)oxazole-4-carboxylic acid], 2600 nM. In the case of `COc1cc(F)ccc1Oc1nc2ccccc2nc1C(=O)Nc1cc[nH]n1` [Compound 40, 3-(4-fluoro-2-methoxyphenoxy)-N-(1H-pyrazol-3-yl)quinoxaline-2-carboxamide], half-maximal inhibition (IC50) required 1700 nM. Compared with the last compound, the IC50 is about 1.5-fold lower.

Compound `COc1cc(F)ccc1Oc1nc2ccccc2nc1C(=O)Nc1ccc2[nH]nnc2c1` [Compound 42, N-(1H-benzo[d][1,2,3]triazol-5-yl)-3-(4-fluoro-2-methoxyphenoxy)quinoxaline-2-carboxamide] returned an IC50 of 96 nM.

Consider `COc1cc(F)ccc1Oc1nc2ccccc2nc1C(=O)Nc1cn[nH]c1` [Compound 43, 3-(4-fluoro-2-methoxyphenoxy)-N-(1H-pyrazol-4-yl)quinoxaline-2-carboxamide], for which the IC50 stood at 220 nM. Next, `COc1cc(F)ccc1Oc1nc2ccccc2nc1C(=O)Nc1ccc2[nH]c(CO)nc2c1` [Compound 44, 3-(4-fluoro-2-methoxyphenoxy)-N-(2-(hydroxymethyl)-1H-benzo[d]imidazol-5-yl)quinoxaline-2-carboxamide]: 425 nM. Next, `COc1cc(F)ccc1Oc1nc2ccccc2nc1C(=O)Nc1cccc(-c2nnn[nH]2)c1` [Compound 45, N-(3-(1H-tetrazol-5-yl)phenyl)-3-(4-fluoro-2-methoxyphenoxy)quinoxaline-2-carboxamide]: 1650 nM; `COc1cc(F)ccc1Oc1nc2ccccc2nc1C(=O)Nc1cccc(S(C)(=O)=O)c1` [Compound 46, 3-(4-fluoro-2-methoxyphenoxy)-N-(3-(methylsulfonyl)phenyl)quinoxaline-2-carboxamide]: 1 nM. As for `COc1cc(F)ccc1Oc1nc2ccccc2nc1C(=O)Nc1ccc2cn[nH]c2c1` [Compound 47, 3-(4-fluoro-2-methoxyphenoxy)-N-(1H-indazol-6-yl)quinoxaline-2-carboxamide], the IC50 stood at 130 nM.

The compound `COc1cc(F)ccc1Oc1nc2ccccc2nc1C(=O)Nc1ccc2[nH]ncc2c1` [Compound 48, 3-(4-fluoro-2-methoxyphenoxy)-N-(1H-indazol-5-yl)quinoxaline-2-carboxamide] gave an IC50 of 86 nM. Compared with the last compound, the IC50 is about 1.5-fold lower.

The compound `COc1cc(F)ccc1Oc1nc2ccccc2nc1C(=O)Nc1ccc2nc[nH]c2c1` [Compound 49, N-(1H-benzo[d]imidazol-6-yl)-3-(4-fluoro-2-methoxyphenoxy)quinoxaline-2-carboxamide] returned an IC50 of 585 nM. Compared with the last compound, the IC50 is about 6.8-fold higher.

The compound `COc1cc(F)ccc1Oc1nc2ccccc2nc1C(=O)Nc1cc(C#N)ccn1` [Compound 50, N-(4-cyanopyridin-2-yl)-3-(4-fluoro-2-methoxyphenoxy)quinoxaline-2-carboxamide] had an IC50 of 1250 nM. The result for `COc1cc(F)ccc1Oc1nc2ccccc2nc1C(=O)Nc1ccc(C#N)nc1` [Compound 51, N-(6-cyanopyridin-3-yl)-3-(4-fluoro-2-methoxyphenoxy)quinoxaline-2-carboxamide] reads 37 nM; that for `COc1cc(F)ccc1Oc1nc2ccccc2nc1C(=O)Nc1ccc(C#N)cn1` [Compound 52, N-(5-cyanopyridin-2-yl)-3-(4-fluoro-2-methoxyphenoxy)quinoxaline-2-carboxamide], 2400 nM. Next, `COc1cc(F)ccc1Oc1nc2ccccc2nc1C(=O)Nc1ccncc1` [Compound 53, 3-(4-fluoro-2-methoxyphenoxy)-N-(pyridin-4-yl)quinoxaline-2-carboxamide]: 22 nM. Next, `COc1cc(F)ccc1Oc1nc2ccccc2nc1C(=O)Nc1cccnc1` [Compound 54, 3-(4-fluoro-2-methoxyphenoxy)-N-(pyridin-3-yl)quinoxaline-2-carboxamide]: 80 nM; `COc1cc(F)ccc1Oc1nc2ccccc2nc1C(=O)Nc1ccc(C#N)cc1` [Compound 55, N-(4-cyanophenyl)-3-(4-fluoro-2-methoxyphenoxy)quinoxaline-2-carboxamide]: 46 nM; `COc1cc(F)ccc1Oc1nc2ccccc2nc1C(=O)Nc1cccc(C#N)c1` [Compound 56, N-(3-cyanophenyl)-3-(4-fluoro-2-methoxyphenoxy)quinoxaline-2-carboxamide]: 30 nM. In the case of `COc1cc(F)ccc1Oc1nc2ccccc2nc1C(=O)Nc1ccc2[nH]c(=O)[nH]c2c1` [Compound 57, 3-(4-fluoro-2-methoxyphenoxy)-N-(2-oxo-2,3-dihydro-1H-benzo[d]imidazol-5-yl)quinoxaline-2-carboxamide], inhibition was half-maximal at 19 nM (IC50). In turn, `COc1cc(F)ccc1Oc1nc2ccccc2nc1C(=O)Nc1ccc(C(N)=O)cc1` [Compound 58, N-(4-carbamoylphenyl)-3-(4-fluoro-2-methoxyphenoxy)quinoxaline-2-carboxamide] gave an IC50 of 31 nM. `COc1cc(F)ccc1Oc1nc2ccccc2nc1C(=O)Nc1cccc(C(N)=O)c1` [Compound 59, N-(3-carbamoylphenyl)-3-(4-fluoro-2-methoxyphenoxy)quinoxaline-2-carboxamide] showed an IC50 of 180 nM. Next, `NS(=O)(=O)c1cccc(NC(=O)c2cc3ccccc3nc2Oc2ccc(F)cc2)c1` [Compound 60, 2-(4-fluorophenoxy)-N-(3-sulfamoylphenyl)quinoline-3-carboxamide]: 17 nM; `COc1cc(F)ccc1Oc1nc2ccccc2cc1C(=O)Nc1cccc(S(N)(=O)=O)c1` [Compound 61, 2-(4-fluoro-2-methoxyphenoxy)-N-(3-sulfamoylphenyl)quinoline-3-carboxamide]: 11 nM.
